Measurements reported in patent US20090311237A1, “Combination therapy using a soluble hyaluronidase and a bisphosphonate” (priority 2008, published 2009).
Read-outs that look alike come from different tables or passages of the source.

Assay: Phase 1 Stage 1 clinical pharmacokinetics of SC ZA co-administered with rHuPH20
Format: in vivo, human
Details: human, serum, sc; for MRT: read-out: MRT; for Tmax: read-out: Tmax; for AUC(0-inf): read-out: AUC (0-∞); for AUC(0-t): ZA […] SC
Description: A pharmacokinetic study of zoledronic acid (ZA) co-administered with rHuPH20 in human subjects was conducted. The primary objective of the study was to determine the bioavailability of zoledronic acid dosed via subcutaneous (SC) co-administration with human recombinant hyaluronidase PH20 (rHuPH20). […] The patients were administered the prescribed dosage formulations as follows: Cohorts 1-5 were administered a single subcutaneous infusion in a dosage volume of 100 ml at a rate of 3 mL/min. […] The dosing solution is administered via needle or catheter into the SC space of the left anterior thigh (midway between the anterior iliac crest and the cephalad border of the patella). For cohorts 1-5, the dosing solutions were administered by a controlled rate infusion pump at approximately 3 mL/minute. […] The dosing solutions were administered by syringe push bolus injection. […] Serum concentration of ZA was determined using a qualified LC-MS-MS assay after derivatization with diazomethane (Zhu, L S et al. (2006) Rapid Commun. […] The assay range was from 2.0 to 400 ng/mL with a lower limit of quantitation (LLOQ) at 2.0 ng/mL. […] Non-compartmental analysis was used for derivation of primary and secondary pharmacokinetic (PK) parameters. […] Summary statistics (mean, standard deviation, and median) were calculated using JMP or Microsoft Excel.

[1] = ZA 1 mg SC + 24000 U rHuPH20, individual subjects
[2] = ZA 1 mg SC + 24000 U rHuPH20, mean, n=3
[3] = ZA 1 mg SC + 24000 U rHuPH20, median, n=3
[4] = ZA 2 mg SC + 24000 U rHuPH20, individual subjects
[5] = ZA 2 mg SC + 24000 U rHuPH20, mean, n=3
[6] = ZA 2 mg SC + 24000 U rHuPH20, median, n=3
[7] = ZA 5 mg SC + 24000 U rHuPH20, individual subjects
[8] = ZA 5 mg SC + 24000 U rHuPH20, mean, n=3
[9] = ZA 5 mg SC + 24000 U rHuPH20, median, n=3

## O=P(O)(O)C(O)(Cn1ccnc1)P(=O)(O)O [ZA, 1-hydroxy-2-(1H-imidazol-1-yl)ethylidene-1,1-bisphosphonic acid]
[1]
  MRT: 6.93 h
  Tmax: 1.31 h
ZA 1 mg SC + 24000 U rHuPH20, individual subjects, read-out: Vss/F
  Vd/F: 0.988 L/kg
ZA 1 mg SC + 24000 U rHuPH20, individual subjects, read-out: Vz/F
  Vd/F: 2.65 L/kg
[2]
  CL/F: 0.129 L/h/kg
  Cmax: 0.0295 µg/mL
  AUC(0-inf): 0.134 µg·h/mL
  MRT: 6.61 h
  Tmax: 1.03 h
ZA 1 mg SC + 24000 U rHuPH20, mean, n=3, read-out: Vss/F
  Vd/F: 0.852 L/kg
ZA 1 mg SC + 24000 U rHuPH20, mean, n=3, read-out: Vz/F
  Vd/F: 2.13 L/kg
[3]
  CL/F: 0.143 L/h/kg
  Cmax: 0.0301 µg/mL
  AUC(0-inf): 0.122 µg·h/mL
  MRT: 6.66 h
  Tmax: 1.06 h
ZA 1 mg SC + 24000 U rHuPH20, median, n=3, read-out: Vss/F
  Vd/F: 0.988 L/kg
ZA 1 mg SC + 24000 U rHuPH20, median, n=3, read-out: Vz/F
  Vd/F: 2.05 L/kg
[4]
  CL/F: 0.135 L/h/kg
  Cmax: 0.0628 µg/mL
  AUC(0-inf): 0.246 µg·h/mL
  MRT: 5.72 h
  Tmax: 1.31 h
ZA 2 mg SC + 24000 U rHuPH20, individual subjects, read-out: Vss/F
  Vd/F: 0.774 L/kg
ZA 2 mg SC + 24000 U rHuPH20, individual subjects, read-out: Vz/F
  Vd/F: 2.48 L/kg
[5]
  CL/F: 0.127 L/h/kg
  Cmax: 0.0582 µg/mL
  AUC(0-inf): 0.262 µg·h/mL
  MRT: 7.5 h
  Tmax: 1.48 h
ZA 2 mg SC + 24000 U rHuPH20, mean, n=3, read-out: Vss/F
  Vd/F: 0.941 L/kg
ZA 2 mg SC + 24000 U rHuPH20, mean, n=3, read-out: Vz/F
  Vd/F: 2.87 L/kg
[6]
  CL/F: 0.124 L/h/kg
  Cmax: 0.0587 µg/mL
  AUC(0-inf): 0.246 µg·h/mL
  MRT: 6.19 h
  Tmax: 1.56 h
ZA 2 mg SC + 24000 U rHuPH20, median, n=3, read-out: Vss/F
  Vd/F: 0.774 L/kg
ZA 2 mg SC + 24000 U rHuPH20, median, n=3, read-out: Vz/F
  Vd/F: 2.48 L/kg
[7]
  CL/F: 0.127 L/h/kg
  Cmax: 0.131 µg/mL
  AUC(0-inf): 0.62 µg·h/mL
  MRT: 10.9 h
  Tmax: 0.81 h
ZA 5 mg SC + 24000 U rHuPH20, individual subjects, read-out: Vss/F
  Vd/F: 1.39 L/kg
ZA 5 mg SC + 24000 U rHuPH20, individual subjects, read-out: Vz/F
  Vd/F: 4.27 L/kg
[8]
  CL/F: 0.111 L/h/kg
  Cmax: 0.132 µg/mL
  AUC(0-inf): 0.662 µg·h/mL
  MRT: 12.5 h
  Tmax: 0.98 h
ZA 5 mg SC + 24000 U rHuPH20, mean, n=3, read-out: Vss/F
  Vd/F: 1.38 L/kg
ZA 5 mg SC + 24000 U rHuPH20, mean, n=3, read-out: Vz/F
  Vd/F: 3.92 L/kg
[9]
  CL/F: 0.111 L/h/kg
  Cmax: 0.131 µg/mL
  AUC(0-inf): 0.637 µg·h/mL
  MRT: 12.7 h
  Tmax: 0.81 h
ZA 5 mg SC + 24000 U rHuPH20, median, n=3, read-out: Vss/F
  Vd/F: 1.39 L/kg
ZA 5 mg SC + 24000 U rHuPH20, median, n=3, read-out: Vz/F
  Vd/F: 3.91 L/kg
AUC (0-12 h), Subj 1, inf 0.554 hr, PH20 23928 U
  AUC(0-t): 0.0292 µg·h/mL
AUC (0-12 h), Subj 8, inf 0.531 hr, PH20 22944 U
  AUC(0-t): 0.0288 µg·h/mL
AUC (0-12 h), Subj 11, inf 0.554 hr, PH20 23928 U
  AUC(0-t): 0.0295 µg·h/mL
AUC (0-12 h), Subj 16, inf 0.553 hr, PH20 23904 U
  AUC(0-t): 0.0608 µg·h/mL
AUC (0-12 h), Subj 18, inf […], PH20 23304 U
  AUC(0-t): 0.0662 µg·h/mL
AUC (0-12 h), Subj 21, inf 0.556 hr, PH20 24000 U
  AUC(0-t): 0.0624 µg·h/mL
AUC (0-12 h), Subj 25, inf 0.549 hr, PH20 23736 U
  AUC(0-t): 0.103 µg·h/mL
AUC (0-12 h), Subj 26, inf […], PH20 23088 U
  AUC(0-t): 0.137 µg·h/mL
AUC (0-12 h), Subj 31, inf 0.554 hr, PH20 23952 U
  AUC(0-t): 0.213 µg·h/mL
AUC (0-12 h), Subj 32, inf 0.556 hr, PH20 24000 U
  AUC(0-t): 0.238 µg·h/mL
AUC (0-12 h), Subj 51, inf 0.251 hr, PH20 6024 U
  AUC(0-t): 0.384 µg·h/mL
AUC (0-12 h), Subj 77, inf […], PH20 6000 U
  AUC(0-t): 0.516 µg·h/mL
AUC (0-24 h), Subj 1, inf 0.554 hr, PH20 23928 U
  AUC(0-t): 0.0294 µg·h/mL
AUC (0-24 h), Subj 8, inf 0.531 hr, PH20 22944 U
  AUC(0-t): 0.0294 µg·h/mL
AUC (0-24 h), Subj 11, inf 0.554 hr, PH20 23928 U
  AUC(0-t): 0.0299 µg·h/mL
AUC (0-24 h), Subj 16, inf 0.553 hr, PH20 23904 U
  AUC(0-t): 0.0629 µg·h/mL
AUC (0-24 h), Subj 18, inf […], PH20 23304 U
  AUC(0-t): 0.0685 µg·h/mL
AUC (0-24 h), Subj 21, inf 0.556 hr, PH20 24000 U
  AUC(0-t): 0.0647 µg·h/mL
AUC (0-24 h), Subj 25, inf 0.549 hr, PH20 23736 U
  AUC(0-t): 0.112 µg·h/mL
AUC (0-24 h), Subj 26, inf […], PH20 23088 U
  AUC(0-t): 0.147 µg·h/mL
AUC (0-24 h), Subj 31, inf 0.554 hr, PH20 23952 U
  AUC(0-t): 0.228 µg·h/mL
AUC (0-24 h), Subj 32, inf 0.556 hr, PH20 24000 U
  AUC(0-t): 0.257 µg·h/mL
AUC (0-24 h), Subj 51, inf 0.251 hr, PH20 6024 U
  AUC(0-t): 0.43 µg·h/mL
AUC (0-24 h), Subj 77, inf […], PH20 6000 U
  AUC(0-t): 0.566 µg·h/mL
AUC (0-48 h), Subj 1, inf 0.554 hr, PH20 23928 U
  AUC(0-t): 0.0294 µg·h/mL
AUC (0-48 h), Subj 8, inf 0.531 hr, PH20 22944 U
  AUC(0-t): 0.0294 µg·h/mL
AUC (0-48 h), Subj 11, inf 0.554 hr, PH20 23928 U
  AUC(0-t): 0.0299 µg·h/mL
AUC (0-48 h), Subj 16, inf 0.553 hr, PH20 23904 U
  AUC(0-t): 0.0642 µg·h/mL
